The assay in a line: Reversal of multidrug resistance in human MCF7-DOX cells measured for 48 hrs by MTT assay. Format: functional, cell-based.

In the case of `C/C=C(\C)C(=O)O[C@H]1[C@@H](OC(C)=O)[C@H](OC(C)=O)[C@H](OC(=O)/C(C)=C/C)[C@@H](OC(=O)/C(=C/C)CO)[C@@H]1OC(=O)/C(=C/C)CO`, the concentration for half-maximal inhibition (IC50) – broadly, the concentration needed to halve the response being measured – is 3.4 µM.

On to `C/C=C(\C)C(=O)O[C@H]1[C@H](OC(=O)/C(C)=C/C)[C@@H](OC(=O)/C(C)=C/C)[C@@H](O)[C@H](O)[C@@H]1OC(=O)/C(C)=C/C`, for which the IC50 worked out at 4 µM.

Take `C/C=C(\C)C(=O)O[C@@H]1[C@H](O)[C@@H](OC(=O)/C(C)=C/C)[C@H](OC(=O)/C(C)=C/C)[C@@H](OC(=O)/C(C)=C/C)[C@H]1O`: the IC50 was 6.5 µM.

Turning to `COc1cccc2c1C(=O)c1c(O)c3c(c(O)c1C2=O)C[C@@](O)(C(=O)CO)C[C@@H]3O[C@H]1C[C@H](N)[C@H](O)[C@H](C)O1` [DOXORUBICIN], the half-inhibitory concentration (IC50) was 22.4 µM.

Regarding `COc1ccc(CCN(C)CCCC(C#N)(c2ccc(OC)c(OC)c2)C(C)C)cc1OC` (stereo not given) [VERAPAMIL], the IC50 stood at 2.1 µM.

Source of the values: ChEMBL document CHEMBL5257077, “d-chiro-Inositol Derivatives with Multidrug Resistance Reversal Activities from the Fruits of Chisocheton siamensis” (J Nat Prod, 2023).
